The target of the assay is T1, human EP1 receptor (Homo sapiens, UniProt P34995).
T1 construct: expressed in transfected cells; host or cells: CHO-K1
T1 sequence (P34995 1-402): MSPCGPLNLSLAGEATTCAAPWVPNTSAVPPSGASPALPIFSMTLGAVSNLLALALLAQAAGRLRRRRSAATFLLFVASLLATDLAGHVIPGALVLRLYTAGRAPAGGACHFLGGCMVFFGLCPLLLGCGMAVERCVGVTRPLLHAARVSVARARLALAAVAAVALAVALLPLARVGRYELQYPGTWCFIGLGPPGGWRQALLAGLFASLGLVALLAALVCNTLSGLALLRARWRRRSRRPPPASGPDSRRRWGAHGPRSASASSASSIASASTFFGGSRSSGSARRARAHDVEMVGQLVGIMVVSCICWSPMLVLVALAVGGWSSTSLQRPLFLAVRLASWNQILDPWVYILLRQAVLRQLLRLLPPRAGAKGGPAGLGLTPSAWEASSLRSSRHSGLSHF
The assay can be described thus: human EP1 calcium mobilisation assay. The assay is classed as cell-based. The settings on record: negative logarithm10 of the antagonist dissociation constant; CHO-K1 cells, PGE2; free bases or sodium salts; averages of a number of experiments; read-out: functional pKi value (converted). How it is done:
Briefly, the antagonist properties of compounds are assessed by their ability to inhibit the mobilisation of intracellular calcium ([Ca^2+]i) in response to activation of EP1 or EP3 receptors by the natural agonist hormone prostaglandin E2 (PGE2). Increasing concentrations of antagonist reduce the amount of calcium that a given concentration of PGE2 can mobilise. The net effect is to displace the PGE2 concentration-effect curve to higher concentrations of PGE2. The amount of calcium produced is assessed using a calcium-sensitive fluorescent dye such as Fluo-4, AM and a suitable instrument such as a Fluorimetric Imaging Plate Reader (FLIPR). Increasing amounts of [Ca^2+]i produced by receptor activation increase the amount of fluorescence produced by the dye and give rise to an increasing signal. The signal may be detected using the FLIPR instrument and the data generated may be analysed with suitable curve-fitting software.
The human EP1 or EP3 calcium mobilisation assay (hereafter referred to as ‘the calcium assay’) utilises Chinese hamster ovary-K1 (CHO-K1) cells into which a stable (pCIN; BioTechniques 20 (1996): 102-110) vector containing either EP1 or EP3 cDNA has previously been transfected. Cells are cultured in suitable flasks containing culture medium such as DMEM:F-12 supplemented with 10% v/v foetal calf serum, 2 mM L-glutamine, 0.25 mg/ml geneticin, 100 μM flurbiprofen and 10 μg/ml puromycin.
For assay, cells are harvested using a proprietary reagent that dislodges cells such as Versene. Cells are re-suspended in a suitable quantity of fresh culture media for introduction into a 384-well plate. Following incubation for 24 hours at 37° C. the culture media is replaced with a medium containing Fluo-4 and the detergent pluronic acid, and a further incubation takes place. Concentrations of compounds are then added to the plate in order to construct concentration-effect curves. This may be performed on the FLIPR in order to assess the agonist properties of the compounds. Concentrations of PGE2 are then added to the plate in order to assess the antagonist properties of the compounds.
The data so generated may be analysed by means of a computerised curve-fitting routine. The concentration of compound that elicits a half-maximal inhibition of the calcium mobilisation induced by PGE2 (plC50) may then be estimated.
On the technique in general: A change in cytosolic calcium serves as a functional read-out for many receptors and channels.

Experimental findings from US20090239845A1, “PYRAZOLE COMPOUNDS AS PROSTAGLANDIN RECEPTORS LIGANDS” (priority 2005, published 2009) are described below.

Structures can show the parent of a compound that is named as a salt.

In the case of `CC(=O)Nc1cc(C)n(Cc2cc(Cl)ccc2OCC(C)C)n1` [Example 103, N-[1-({5-Chloro-2-[(2-methylpropyl)oxy]phenyl}methyl)-5-methyl-1H-pyrazol-3-yl]acetamide], the Ki is more than 1 µM. The result for `Cc1cc(C(=O)Nc2ccccc2)nn1Cc1cc(Cl)ccc1OCc1ccccc1` [Example 291, 1-({5-Chloro-2-[(phenylmethyl)oxy]phenyl}methyl)-5-methyl-N-phenyl-1H-pyrazol-3-carboxamide] reads more than 1 µM; that for `Cc1cc(NC(=O)Cc2ccncc2)nn1Cc1cc(Cl)ccc1OCc1ccccc1` [Example 149, N-[1-({5-Chloro-2-[(phenylmethyl)oxy]phenyl}methyl)-5-methyl-1H-pyrazol-3-yl]-2-(4-pyridinyl)-acetamide], more than 1 µM. To `Cc1cc(C(=O)NC(C)C)nn1Cc1cc(Cl)ccc1OCc1ccccc1` [Example 290, 1-({5-Chloro-2-[(phenylmethyl)oxy]phenyl}methyl)-5-methyl-N-(1-methylethyl)-1H-pyrazole-3-carboxamide] belongs more than 1 µM; to `COC(=O)Nc1cc(C)n(Cc2cc(Cl)ccc2OCc2ccccc2)n1` [Example 65, Methyl[1-({5-chloro-2-[(phenylmethyl)oxy]phenyl}methyl)-5-methyl-1H-pyrazol-3-yl]carbamate], more than 1 µM; to `Cc1cc(NC(=O)Cc2ccccc2)nn1Cc1cc(Cl)ccc1OCc1c(F)cc(F)cc1F` [Example 127, N-{1-[(5-Chloro-2-{[(2,4,6-trifluorophenyl)methyl]oxy}phenyl)methyl]-5-methyl-1H-pyrazol-3-yl}-2-phenylacetamide], more than 1 µM. In the case of `Cc1cc(-c2nc3nccnc3[nH]2)nn1Cc1cc(Cl)ccc1OCC(C)C` [Example 371, 2-[1-({5-Chloro-2-[(2-methylpropyl)oxy]phenyl}methyl)-5-methyl-1H-pyrazol-3-yl]-1H-imidazo[4,5-b]pyrazine hydrochloride], the Ki was more than 1 µM. As to `Cc1cc(NC(=O)Cc2ccccc2)nn1Cc1cc(Cl)ccc1OCc1ccc(F)cc1Cl` [Example 124, N-{1-[(5-Chloro-2-{[(2-chloro-4-fluorophenyl)methyl]oxy}phenyl)methyl]-5-methyl-1H-pyrazol-3-yl}-2-phenylacetamide], the Ki is more than 1 µM. To `Cc1cc(NC(=O)c2ccc(CN3CCCCC3)c(F)c2)nn1Cc1cc(Cl)ccc1OCC(C)C` [Example 436, N-[1-({5-chloro-2-[(2-methylpropyl)oxy]phenyl}methyl)-5-methyl-1H-pyrazol-3-yl]-3-fluoro-4-(1-piperidinylmethyl)benzamide hydrochloride] belongs more than 1 µM; to `Cc1cc(S(=O)(=O)NC(=O)c2ccccc2)nn1Cc1cc(Cl)ccc1OCc1ccccc1` [Example 359, N-{[1-({5-Chloro-2-[(phenylmethyl)oxy]phenyl}methyl)-5-methyl-1H-pyrazol-3-yl]sulfonyl}benzamide], more than 1 µM. To `Cc1cc(N2CCN(Cc3ccccc3)CC2)nn1Cc1cc(Cl)ccc1OCc1ccccc1` [Example 288, 4-[1-({5-Chloro-2-[(phenylmethyl)oxy]phenyl}methyl)-5-methyl-1H-pyrazol-3-yl]-1-(phenylmethyl)piperazin-1-ium chloride] belongs more than 1 µM; to `Cc1cc(NC(=O)c2ccc3c(c2)CCN(C(=O)OC(C)(C)C)CC3)nn1Cc1cc(Cl)ccc1OCC(C)C` [Example 97, 1,1-Dimethylethyl 7-({[1-({5-chloro-2-[(2-methylpropyl)oxy]phenyl}methyl)-5-methyl-1H-pyrazol-3-yl]amino}carbonyl)-1,2,4,5-tetrahydro-3H-3-benzazepine-3-carboxylate], more than 1 µM; to `CCN(CC)Cc1ccc(C(=O)Nc2cc(C)n(Cc3cc(Cl)ccc3OCC(C)C)n2)cc1F` [Example 435, N-[1-({5-chloro-2-[(2-methylpropyl)oxy]phenyl}methyl)-5-methyl-1H-pyrazol-3-yl]-4-[(diethylamino)methyl]-3-fluorobenzamide hydrochloride], more than 1 µM.

`Cc1cc(C(=O)Nc2ccccn2)nn1Cc1cc(Cl)ccc1OCc1ccccc1` [Example 297, 1-({5-Chloro-2-[(phenylmethyl)oxy]phenyl}methyl)-5-methyl-N-2-pyridinyl-1H-pyrazole-3-carboxamide]: the Ki is more than 1 µM.

Regarding `Cc1cc(OC(=O)NC2CCCCC2)nn1Cc1cc(Cl)ccc1OCc1ccccc1` [Example 43, 1-({5-Chloro-2-[(phenylmethyl)oxy]phenyl}methyl)-5-methyl-1H-pyrazol-3-yl cyclohexylcarbamate], the Ki is more than 1 µM.

On to `Cc1cc(NC(=O)c2cnccn2)nn1Cc1cc(Cl)ccc1OCc1ccccc1` [Example 144, N-[1-({5-Chloro-2-[(phenylmethyl)oxy]phenyl}methyl)-5-methyl-1H-pyrazol-3-yl]-2-pyrazinecarboxamide], for which the Ki is more than 1 µM. As to `Cc1cc(NC(=O)Cc2ccccc2)nn1Cc1cc(Cl)ccc1OCc1ccc(Cl)cc1Cl` [Example 125, N-{1-[(5-Chloro-2-{[(2,4-dichlorophenyl)methyl]oxy}phenyl)methyl]-5-methyl-1H-pyrazol-3-yl}-2-phenylacetamide], the Ki was more than 1 µM.

For the compound `Cc1cc(OC(=O)NCc2ccc(CNC(=O)OC(C)(C)C)cc2)nn1Cc1cc(Cl)ccc1OCc1ccccc1` [Example 59, 1-({5-Chloro-2-[(phenylmethyl)oxy]phenyl}methyl)-5-methyl-1H-pyrazol-3-yl 1,1-dimethylethyl (benzene-1,4-dildimethanediyl)biscarbamate], the Ki is more than 1 µM. Regarding `Cc1cc(NC(=O)c2ccc(C#N)cc2)nn1Cc1cc(Cl)ccc1OCc1ccccc1` [Example 142, N-[1-({5-Chloro-2-[(phenylmethyl)oxy]phenyl}methyl)-5-methyl-1H-pyrazol-3-yl]-4-cyanobenzamide], the Ki is more than 1 µM. For `Cc1cc(NC(=O)c2ccc3c(c2)CCNCC3)nn1Cc1cc(Cl)ccc1OCC(C)C` [Example 98, N-[1-({5-Chloro-2-[(2-methylpropyl)oxy]phenyl}methyl)-5-methyl-1H-pyrazol-3-yl]-2,3,4,5-tetrahydro-1H-3-benzazepine-7-carboxamide hydrochloride], the Ki is more than 1 µM. `Cc1cc(OC(=O)NCc2cccc(CNC(=O)OC(C)(C)C)c2)nn1Cc1cc(Cl)ccc1OCc1ccccc1` [Example 61, 1-({5-Chloro-2-[(phenylmethyl)oxy]phenyl}methyl)-5-methyl-1H-pyrazol-3-yl 1,1-dimethylethyl (benzene-1,3-diyldimethanediyl)biscarbamate]: the Ki is more than 1 µM. To `Cc1cc(NC(=O)Cc2ccccc2)nn1Cc1cc(Cl)ccc1OCc1ccc(F)c(F)c1F` [Example 123, N-{1-[(5-Chloro-2-{[(2,3,4-trifluorophenyl)methyl]oxy}phenyl)methyl]-5-methyl-1H-pyrazol-3-yl}-2-phenylacetamide] belongs more than 1 µM. As to `Cc1cc(NC(=O)c2cccnc2)nn1Cc1cc(Cl)ccc1OCc1ccccc1` [Example 145, N-[1-({5-Chloro-2-[(phenylmethyl)oxy]phenyl}methyl)-5-methyl-1H-pyrazol-3-yl]-3-pyridinecarboxamide], the Ki was more than 1 µM. To `Cc1cc(N2CCN(CC3CCCCC3)CC2=O)nn1Cc1cc(Cl)ccc1OCc1ccccc1` [Example 249, 1-[1-({5-Chloro-2-[(phenylmethyl)oxy]phenyl}methyl)-5-methyl-1H-pyrazol-3-yl]-4-(cyclohexylmethyl)-2-piperazinone hydrochloride] belongs more than 1 µM.
